For assay [1], the target named is Homeodomain-interacting protein kinase 4 (Homo sapiens) (UniProt Q8NE63). The experiment in a line: Inhibition of wild-type human partial length HIPK4 (M1 to V384 residues) expressed in bacterial expression system at 1 uM by Kinomescan method relative to control.
For assay [2], the target named is Mitogen-activated protein kinase 12 (Homo sapiens) (UniProt P53778). The experiment in a line: Inhibition of wild-type human full length p38-gamma (M1 to L367 residues) expressed in mammalian expression system at 1 uM by Kinomescan method relative to control.
The target of assay [3] is Serine/threonine-protein kinase PAK 2 (Homo sapiens) (UniProt Q13177). Kind of assay: Inhibition of wild-type human partial length PAK2 (P151 to R525 residues) expressed in bacterial expression system at 1 uM by Kinomescan method relative to control.
In assay [4] the target is Rhodopsin kinase GRK7 (Homo sapiens) (UniProt Q8WTQ7). Kind of assay: Inhibition of wild-type human full length GRK7 (M1 to L553 residues) expressed in mammalian expression system at 1 uM by Kinomescan method relative to control.
Assay [5] concerns the target Serine/threonine-protein kinase PRP4 homolog (Homo sapiens) (UniProt Q13523). The experiment in a line: Inhibition of wild-type human partial length PRP4 (D657 to I1007 residues) expressed in bacterial expression system at 1 uM by Kinomescan method relative to control.
The target in assay [6] is Platelet-derived growth factor receptor beta (Homo sapiens) (UniProt P09619). Kind of assay: Inhibition of wild-type human partial length PDGFRB (V582 to Y1009 residues) expressed in bacterial expression system at 1 uM by Kinomescan method relative to control.
Assay [7] deals with Serine/threonine-protein kinase DCLK2 (Homo sapiens) (UniProt Q8N568). The experiment in a line: Inhibition of wild-type human partial length DCAMKL2 (K273 to V664 residues) expressed in bacterial expression system at 1 uM by Kinomescan method relative to control.
For assay [8], the target named is Protein kinase C iota type (Homo sapiens) (UniProt P41743). Kind of assay: Inhibition of wild-type human partial length PRKCI (H215 to V587 residues) expressed in mammalian expression system at 1 uM by Kinomescan method relative to control.
Assay [9] concerns the target Serine/threonine-protein kinase NLK (Homo sapiens) (UniProt Q9UBE8). The experiment in a line: Inhibition of wild-type human full length NLK (M13 to E527 residues) expressed in bacterial expression system at 1 uM by Kinomescan method relative to control.
For assay [10], the target named is Mitogen-activated protein kinase kinase kinase 12 (Homo sapiens) (UniProt Q12852). Kind of assay: Inhibition of wild-type human full length DLK (M1 to P859 residues) expressed in mammalian expression system at 1 uM by Kinomescan method relative to control.
Assay [11] addresses Dual specificity mitogen-activated protein kinase kinase 2 (Homo sapiens) (UniProt P36507). Kind of assay: Inhibition of wild-type human full length MEK2 (M1 to V400 residues) expressed in mammalian expression system at 1 uM by Kinomescan method relative to control.
The target in assay [12] is High affinity nerve growth factor receptor (Homo sapiens) (UniProt P04629). The experiment in a line: Inhibition of wild-type human partial length TRKA (G475 to G790 residues) expressed in mammalian expression system at 1 uM by Kinomescan method relative to control.
The test system of assay [13] is Epidermal growth factor receptor (Homo sapiens), P00533 [T790M]. The experiment in a line: Inhibition of human partial length EGFR T790M mutant (R669 to G1022 residues) expressed in mammalian expression system at 10 uM by Kinomescan method relative to control.
The target of assay [14] is Serine/threonine-protein kinase LATS1 (Homo sapiens) (UniProt O95835). The experiment in a line: Inhibition of wild-type human partial length LATS1 (Q678 to V1130 residues) expressed in bacterial expression system at 10 uM by Kinomescan method relative to control.
In assay [15] the target is Uncharacterized serine/threonine-protein kinase SBK3 (Homo sapiens) (UniProt P0C264). Kind of assay: Inhibition of wild-type human partial length SgK110 (L22 to R329 residues) expressed in bacterial expression system at 10 uM by Kinomescan method relative to control.
Assay [16] deals with Tyrosine-protein kinase ABL1 (Homo sapiens) (UniProt P00519). The experiment in a line: Inhibition of wild-type human phosphorylated ABL1 (S229 to K512 residues) expressed in mammalian expression system at 10 uM by Kinomescan method relative to control.
For assay [17], the target named is Serine/threonine-protein kinase Nek6 (Homo sapiens) (UniProt Q9HC98). The experiment in a line: Inhibition of wild-type human full length NEK6 (M8 to T313 residues) expressed in bacterial expression system at 10 uM by Kinomescan method relative to control.
For assay [18], the target named is Ribosomal protein S6 kinase alpha-2 (Homo sapiens) (UniProt Q15349). The experiment in a line: Inhibition of wild-type human partial length C-terminal RSK3 kinase domain 2 (V403 to K700 residues) expressed in bacterial expression system at 10 uM by Kinomescan method relative to control.
Assay [19] relates to Epidermal growth factor receptor (Homo sapiens), P00533 [L858R,T790M]. The experiment in a line: Inhibition of human partial length EGFR L858R/T790M double mutant (R669 to V1011 residues) expressed in mammalian expression system at 10 uM by Kinomescan method relative to control.
For assay [20], the target named is Serine/threonine-protein kinase pim-2 (Homo sapiens) (UniProt Q9P1W9). The experiment in a line: Inhibition of wild-type human partial length PIM2 (M1 to E291 residues) expressed in bacterial expression system at 10 uM by Kinomescan method relative to control.
The target in assay [21] is Dual specificity mitogen-activated protein kinase kinase 1 (Homo sapiens) (UniProt Q02750). The experiment in a line: Inhibition of wild-type human full length MEK1 (M1 to V393 residues) expressed in mammalian expression system at 10 uM by Kinomescan method relative to control.
Assay [22] relates to Mast/stem cell growth factor receptor Kit (Homo sapiens), P10721 [L576P]. The experiment in a line: Inhibition of human partial length KIT L576P mutant (Y545 to D952 residues) expressed in bacterial expression system at 10 uM by Kinomescan method relative to control.
For assay [23], the target named is Mitotic checkpoint serine/threonine-protein kinase BUB1 (Homo sapiens) (UniProt O43683). The experiment in a line: Inhibition of wild-type human partial length BUB1 (Q724 to K1085 residues) expressed in mammalian expression system at 10 uM by Kinomescan method relative to control.
For assay [24], the target named is Serine/threonine-protein kinase 24 (Homo sapiens) (UniProt Q9Y6E0). The experiment in a line: Inhibition of wild-type human partial length MST3 (A30 to S311 residues) expressed in bacterial expression system at 10 uM by Kinomescan method relative to control.
Assay [25] has as its target Ribosomal protein S6 kinase alpha-4 (Homo sapiens) (UniProt O75676). The experiment in a line: Inhibition of wild-type human partial length C-terminal RPS6KA4 kinase domain 2 (M375 to T705 residues) expressed in mammalian expression system at 10 uM by Kinomescan method relative to control.
The target in assay [26] is Tyrosine-protein kinase receptor Tie-1 (Homo sapiens) (UniProt P35590). The experiment in a line: Inhibition of wild-type human partial length TIE1 (T819 to A1138 residues) expressed in bacterial expression system at 10 uM by Kinomescan method relative to control.

Each structure is given as a SMILES string.

Serine/threonine-protein kinase Nek6 (Homo sapiens), sequence (Q9HC98 whole entry, the tested form may be a part): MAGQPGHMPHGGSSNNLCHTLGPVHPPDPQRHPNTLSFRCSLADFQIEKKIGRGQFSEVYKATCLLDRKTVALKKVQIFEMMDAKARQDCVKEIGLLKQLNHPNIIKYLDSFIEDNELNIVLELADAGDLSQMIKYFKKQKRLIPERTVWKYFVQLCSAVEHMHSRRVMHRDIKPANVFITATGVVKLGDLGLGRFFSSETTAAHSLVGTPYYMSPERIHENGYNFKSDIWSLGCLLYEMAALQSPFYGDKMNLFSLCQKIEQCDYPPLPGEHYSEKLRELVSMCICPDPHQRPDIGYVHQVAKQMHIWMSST
Ribosomal protein S6 kinase alpha-2 (Homo sapiens), sequence (Q15349 whole entry, the tested form may be a part): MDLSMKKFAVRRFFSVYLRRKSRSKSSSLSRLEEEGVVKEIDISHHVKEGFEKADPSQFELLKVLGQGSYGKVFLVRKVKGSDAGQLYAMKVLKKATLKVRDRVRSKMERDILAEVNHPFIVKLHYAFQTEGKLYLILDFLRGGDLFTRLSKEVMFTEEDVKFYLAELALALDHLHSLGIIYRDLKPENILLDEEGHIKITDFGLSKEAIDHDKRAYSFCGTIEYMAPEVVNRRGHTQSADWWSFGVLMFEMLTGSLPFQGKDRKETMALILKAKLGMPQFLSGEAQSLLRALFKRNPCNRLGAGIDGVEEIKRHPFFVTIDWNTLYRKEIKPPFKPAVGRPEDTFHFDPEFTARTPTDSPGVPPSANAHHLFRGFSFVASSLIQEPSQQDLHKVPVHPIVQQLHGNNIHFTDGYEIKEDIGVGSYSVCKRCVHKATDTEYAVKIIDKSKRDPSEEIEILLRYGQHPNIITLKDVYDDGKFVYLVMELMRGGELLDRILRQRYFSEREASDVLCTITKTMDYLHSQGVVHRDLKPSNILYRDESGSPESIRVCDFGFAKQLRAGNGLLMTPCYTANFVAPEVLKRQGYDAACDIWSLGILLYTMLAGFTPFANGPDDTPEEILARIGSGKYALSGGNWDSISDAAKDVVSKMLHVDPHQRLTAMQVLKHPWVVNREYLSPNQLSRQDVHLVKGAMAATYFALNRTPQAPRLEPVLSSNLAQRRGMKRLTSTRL
High affinity nerve growth factor receptor (Homo sapiens), sequence (P04629 33-796 limits assumed): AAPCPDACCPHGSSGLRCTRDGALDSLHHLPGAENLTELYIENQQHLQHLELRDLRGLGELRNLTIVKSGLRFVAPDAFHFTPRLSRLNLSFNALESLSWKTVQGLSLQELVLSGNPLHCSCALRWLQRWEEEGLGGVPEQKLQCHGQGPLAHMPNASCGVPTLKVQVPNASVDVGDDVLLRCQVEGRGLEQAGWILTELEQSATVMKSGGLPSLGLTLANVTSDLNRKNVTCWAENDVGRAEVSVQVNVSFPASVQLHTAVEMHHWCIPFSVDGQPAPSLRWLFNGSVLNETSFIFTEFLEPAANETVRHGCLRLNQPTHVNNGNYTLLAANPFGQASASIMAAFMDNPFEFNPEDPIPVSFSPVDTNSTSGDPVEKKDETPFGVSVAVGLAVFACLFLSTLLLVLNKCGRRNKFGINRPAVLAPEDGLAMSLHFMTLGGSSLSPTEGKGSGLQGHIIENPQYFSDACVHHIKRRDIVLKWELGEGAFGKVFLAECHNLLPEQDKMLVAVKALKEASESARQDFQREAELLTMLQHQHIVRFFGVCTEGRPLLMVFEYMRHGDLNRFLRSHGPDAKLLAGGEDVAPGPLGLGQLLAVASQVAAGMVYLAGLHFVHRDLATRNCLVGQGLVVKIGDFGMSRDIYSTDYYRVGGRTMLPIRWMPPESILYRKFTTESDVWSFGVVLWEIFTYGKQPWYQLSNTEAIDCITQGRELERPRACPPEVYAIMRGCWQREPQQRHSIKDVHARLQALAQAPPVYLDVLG
Serine/threonine-protein kinase DCLK2 (Homo sapiens), sequence (Q8N568 whole entry, the tested form may be a part): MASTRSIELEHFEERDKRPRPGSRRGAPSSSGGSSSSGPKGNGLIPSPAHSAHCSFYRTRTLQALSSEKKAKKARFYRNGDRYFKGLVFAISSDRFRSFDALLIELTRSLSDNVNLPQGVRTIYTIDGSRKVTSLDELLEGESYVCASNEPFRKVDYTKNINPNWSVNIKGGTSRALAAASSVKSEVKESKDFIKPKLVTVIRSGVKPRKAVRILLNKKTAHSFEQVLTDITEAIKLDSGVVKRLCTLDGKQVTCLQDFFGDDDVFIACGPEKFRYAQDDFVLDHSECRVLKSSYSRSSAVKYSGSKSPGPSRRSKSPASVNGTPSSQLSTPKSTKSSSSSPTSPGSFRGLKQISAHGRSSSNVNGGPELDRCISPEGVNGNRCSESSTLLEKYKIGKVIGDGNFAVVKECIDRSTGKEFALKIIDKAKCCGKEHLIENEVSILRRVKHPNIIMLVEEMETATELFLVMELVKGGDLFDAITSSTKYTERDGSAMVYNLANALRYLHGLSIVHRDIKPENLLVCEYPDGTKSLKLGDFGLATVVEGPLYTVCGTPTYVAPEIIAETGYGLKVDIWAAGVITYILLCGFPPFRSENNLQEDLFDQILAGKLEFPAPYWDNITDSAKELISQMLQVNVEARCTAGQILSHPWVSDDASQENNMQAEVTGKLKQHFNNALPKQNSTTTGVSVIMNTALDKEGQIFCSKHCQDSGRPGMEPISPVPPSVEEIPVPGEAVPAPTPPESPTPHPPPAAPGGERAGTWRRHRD
Epidermal growth factor receptor (Homo sapiens), P00533 [T790M], sequence (P00533 whole entry T790M, the tested form may be a part): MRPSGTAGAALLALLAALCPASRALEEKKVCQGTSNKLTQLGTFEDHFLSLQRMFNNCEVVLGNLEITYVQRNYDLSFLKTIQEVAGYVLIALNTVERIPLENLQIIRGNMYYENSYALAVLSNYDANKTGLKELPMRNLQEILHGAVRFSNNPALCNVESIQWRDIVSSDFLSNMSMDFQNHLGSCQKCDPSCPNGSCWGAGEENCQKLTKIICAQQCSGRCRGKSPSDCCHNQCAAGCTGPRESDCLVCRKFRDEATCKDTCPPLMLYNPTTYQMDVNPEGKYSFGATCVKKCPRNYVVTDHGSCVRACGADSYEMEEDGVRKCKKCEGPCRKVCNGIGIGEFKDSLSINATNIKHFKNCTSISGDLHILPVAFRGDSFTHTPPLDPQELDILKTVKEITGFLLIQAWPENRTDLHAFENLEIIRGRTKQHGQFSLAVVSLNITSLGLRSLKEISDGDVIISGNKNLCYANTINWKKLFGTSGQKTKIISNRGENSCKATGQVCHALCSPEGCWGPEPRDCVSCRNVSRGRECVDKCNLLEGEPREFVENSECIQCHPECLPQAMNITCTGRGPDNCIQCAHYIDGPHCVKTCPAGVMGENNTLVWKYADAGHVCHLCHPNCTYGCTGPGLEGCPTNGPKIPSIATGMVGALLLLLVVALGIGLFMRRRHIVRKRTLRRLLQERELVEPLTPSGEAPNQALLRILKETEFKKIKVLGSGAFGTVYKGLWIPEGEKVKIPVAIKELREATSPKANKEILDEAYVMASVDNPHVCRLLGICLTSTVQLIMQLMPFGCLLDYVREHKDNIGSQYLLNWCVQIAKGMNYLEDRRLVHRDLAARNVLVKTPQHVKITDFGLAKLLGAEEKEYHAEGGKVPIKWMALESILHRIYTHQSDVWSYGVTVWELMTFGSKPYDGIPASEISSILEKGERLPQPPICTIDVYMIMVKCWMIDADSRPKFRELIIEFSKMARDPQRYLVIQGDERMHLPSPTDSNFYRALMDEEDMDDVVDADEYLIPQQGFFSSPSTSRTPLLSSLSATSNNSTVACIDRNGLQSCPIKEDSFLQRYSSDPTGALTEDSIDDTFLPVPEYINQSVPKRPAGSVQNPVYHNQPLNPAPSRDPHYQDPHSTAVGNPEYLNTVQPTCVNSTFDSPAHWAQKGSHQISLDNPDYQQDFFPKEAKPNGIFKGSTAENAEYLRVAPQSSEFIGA
Epidermal growth factor receptor (Homo sapiens), P00533 [L858R,T790M], sequence (P00533 whole entry T790M/L858R, looked up, the tested form may be a part): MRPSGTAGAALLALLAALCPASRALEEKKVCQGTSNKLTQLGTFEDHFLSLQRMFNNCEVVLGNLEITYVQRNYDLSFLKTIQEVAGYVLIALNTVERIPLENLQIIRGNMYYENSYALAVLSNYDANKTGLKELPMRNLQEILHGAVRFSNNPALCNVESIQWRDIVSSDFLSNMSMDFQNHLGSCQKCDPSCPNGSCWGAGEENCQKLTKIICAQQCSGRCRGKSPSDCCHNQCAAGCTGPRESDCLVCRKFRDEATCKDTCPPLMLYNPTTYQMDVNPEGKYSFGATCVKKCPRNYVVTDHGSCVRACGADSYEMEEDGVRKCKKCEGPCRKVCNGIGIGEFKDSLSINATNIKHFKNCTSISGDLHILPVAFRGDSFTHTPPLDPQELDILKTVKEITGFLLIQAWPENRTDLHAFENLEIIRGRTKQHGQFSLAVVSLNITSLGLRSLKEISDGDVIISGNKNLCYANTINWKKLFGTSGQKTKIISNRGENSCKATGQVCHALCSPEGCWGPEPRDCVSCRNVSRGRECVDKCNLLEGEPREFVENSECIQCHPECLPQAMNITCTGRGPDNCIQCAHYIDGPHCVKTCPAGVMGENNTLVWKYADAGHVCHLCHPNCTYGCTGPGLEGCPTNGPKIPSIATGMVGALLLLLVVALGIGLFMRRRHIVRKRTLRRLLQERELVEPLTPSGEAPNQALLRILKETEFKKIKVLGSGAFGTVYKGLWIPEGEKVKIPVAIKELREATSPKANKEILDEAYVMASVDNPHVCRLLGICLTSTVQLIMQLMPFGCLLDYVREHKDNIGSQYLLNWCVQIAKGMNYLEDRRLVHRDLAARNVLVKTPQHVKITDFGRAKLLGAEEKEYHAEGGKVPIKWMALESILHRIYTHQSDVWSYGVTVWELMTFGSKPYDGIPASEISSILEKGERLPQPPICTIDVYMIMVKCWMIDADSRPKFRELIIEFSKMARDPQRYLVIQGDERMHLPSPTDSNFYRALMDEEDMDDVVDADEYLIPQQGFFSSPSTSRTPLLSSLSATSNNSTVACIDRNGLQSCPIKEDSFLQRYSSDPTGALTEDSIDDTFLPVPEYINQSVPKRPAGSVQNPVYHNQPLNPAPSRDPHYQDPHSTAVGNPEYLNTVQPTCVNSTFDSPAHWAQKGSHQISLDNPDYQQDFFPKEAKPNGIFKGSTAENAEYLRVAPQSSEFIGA

As a reminder, the inhibition is the drop in the measured response relative to a control, in per cent. Lower therefore signals a response near the control. For `O=C(Nc1cccc([C@@H]2CN(c3ncnc4[nH]ccc34)CCN2CCO)c1)Nc1c(F)cccc1N1CCCC1`, the inhibition in assay [1] came out at 96%; in [2], 81%; in [3], 87%; in assay [4] it was 99%; in [5], 92%; in assay [6], 42%. Besides, the inhibition in assay [7] stood at 99%; in [8] it was 54%; in assay [9], 100%; in assay [10], 79%; in [11], 73%; in [12] it was 56%.
Regarding `O=C(Nc1cccc([C@H]2CCCN(c3ncnc4[nH]ccc34)C2)c1)Nc1ccccc1N1CCCC1`, the inhibition in assay [13] stood at 66%; in [14] it was 14%; in assay [15], 100%; in assay [16], 43%; in [17] it was 69%; in assay [18] it was 66%. The inhibition in assay [19] amounted to 83%; in assay [20], 100%; in assay [21], 14%; in assay [22], 0.2%; in assay [23] it was 55%; in assay [24] it was 56%. The values for the inhibition in assay [25] and in assay [26] were 44% and 45%, respectively.
